Common to all, as to experiment: In vitro cell proliferation assay (CellTiter-Glo)
What all share (assay type): cell-based
For orientation: In ATP-based viability assays light output follows the ATP content of the culture.

In test [1] the test system is A2780. Particulars: Homo sapiens, A2780 cells, 72 h treatment, read-out: Cell Line IC50 A2780. The procedure:
(§1) Human cancer cell lines were seeded in white 384 well-plates (1250 cells/well) in complete medium (RPM11640 or E-MEM plus 10% Fetal bovine serum) and treated with compounds dissolved in 0.1% DMSO, 24 h after seeding. The cells were incubated at 37° C. and 5% CO2 and after 72 h the plates were processed using CellTiter-Glo assay (Promega) following the manufacturer's instruction.
(§2) CellTiter-Glo is a homogenous method based on the quantification of the ATP present, an indicator of metabolically active cells. ATP is quantified using a system based on luciferase and D-luciferin resulting into light generation.
(§3) Briefly, 25 μL/well of reagent solution are added to each well and, after 5 minutes shaking, microplates are read by a luminometer. The luminescent signal is proportional to the number of live cells present in culture.
(§4) Dose-response curves were generated by sigmoid function interpolation of 8 concentration points and the antiproliferative activity of compounds was reported as the half-maximal inhibitory concentration (IC50).

Test [2] concerns HCC1954. Particulars: Homo sapiens, HCC1954 cells, 72 h treatment, read-out: Cell Line IC50 HCC1954. The procedure: as §1, §2, §3, §4
In test [3] the test system is HCT-116. Particulars: Homo sapiens, HCT-116 cells, 72 h treatment, read-out: Cell Line IC50 HCT-116. The procedure:
as §1, §2, §3, §4

Test [4] relates to HELA. Particulars: Homo sapiens, HELA cells, 72 h treatment, read-out: Cell Line IC50 HELA. The procedure:
as §1, §2, §3, §4

Test [5] concerns MCF7. The note with it: Homo sapiens, MCF7 cells, 72 h treatment, read-out: Cell Line IC50 MCF7. The procedure:
as §1, §2, §3, §4

For test [6], the system named is MDA-MB-468. The note with it: Homo sapiens, MDA-MB-468 cells, 72 h treatment, read-out: Cell Line IC50 MDA-MB-468. The procedure:
as §1, §2, §3, §4

The test system of test [7] is MDA-MB_213. Particulars: Homo sapiens, MDA-MB_213 cells, 72 h treatment, read-out: Cell Line IC50 MDA-MB_213. The procedure: as §1, §2, §3, §4

pIC50: −log10 of the molar value.

On to `CO[C@H]1OCCN2[C@@H]1O[C@@H]1[C@H](C)O[C@@H](O[C@H]3C[C@](O)(C(C)=O)Cc4c(O)c5c(c(O)c43)C(=O)c3c(F)cccc3C5=O)C[C@@H]12` [Comp. 21, (8S,10S)-8-acetyl-1-fluoro-6,8,11-trihydroxy-10-{[(1S,3R,4aS,9aR,10aS)-9-methoxy-1-methyloctahydro-1H-pyrano[4′,3′:4,5][1,3]oxazolo[2,3-c][1,4]oxazin-3-yl]oxy}-7,8,9,10-tetrahydrotetracene-5,12-dione], for which the pIC50 in test [1] was 10.49; in test [2] it was 9.42; in test [3], 9.84; in test [4], 9.46; in test [5], 8.45; in test [6] it was 10.14. In test [7], the pIC50 is 9.51.
For the compound `CO[C@H]1OCCN2[C@@H]1O[C@@H]1[C@H](C)O[C@@H](O[C@H]3C[C@](O)(C(C)=O)Cc4c(O)c5c(c(O)c43)C(=O)c3c(N)cccc3C5=O)C[C@@H]12` [Comp. 22, (8S,10S)-8-acetyl-1-amino-6,8,11-trihydroxy-10-{[(1S,3R,4aS,9S,9aR,10aS)-9-methoxy-1-methyloctahydro-1H-pyrano[4′,3′:4,5][1,3]oxazolo[2,3-c][1,4]oxazin-3-yl]oxy}-7,8,9,10-tetrahydrotetracene-5,12-dione], the pIC50 in test [1] was 10.36; in test [2], 9.26; in test [3], 9.70; in test [4] it was 9.15; in test [5] it was 9.18; in test [6], 9.50. The pIC50 in test [7] was 9.27.
Turning to `CO[C@H]1OCCN2[C@@H]1O[C@@H]1[C@H](C)OC(O[C@H]3C[C@](O)(C(C)=O)Cc4c(O)c5c(c(O)c43)C(=O)c3c(NC(=O)[C@H](C)N)cccc3C5=O)C[C@@H]12` (some centres unmarked) [Comp. 26], the pIC50 was 8.92 in test [1]; 8.32 in test [2]; 8.96 in test [3]; 8.46 in test [4]; 8.42 in test [5]; 8.64 in test [6].

For orientation: pIC50 means −log10 of the IC50, conventionally taken in molar units.

The record behind these values is patent publication US20170312290A1, “FUNCTIONALIZED MORPHOLINYL ANTHRACYCLINE DERIVATIVES” (Nerviano Medical Sciences S.R.L., priority 2014, published 2017).
